Source: ChEMBL document CHEMBL1201862, “PubChem BioAssay data set” (2004)
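Cultured in 96-well plates, cells were exposed to test compound for 48 hours across five concentrations. GI50 is the concentration that inhibits growth by half.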 Active and inactive are the calls of the source. Cut-off read from the data, not from the text of the source: active = GI50 up to about 1.1 µM and inactive = higher.

Legend:
Assay in all cases: NCI-60 cell line screen, 48 h
OVCAR-3 = tested on: OVCAR-3
DU-145 = tested on: DU-145
OVCAR-8 = tested on: OVCAR-8
SK-MEL-28 = tested on: SK-MEL-28
T47D = tested on: T47D
MCF7 = tested on: MCF7
A498 = tested on: A498
PC-3 = tested on: PC-3
HOP-92 = tested on: HOP-92
NCI-H23 = tested on: NCI-H23
UACC-62 = tested on: UACC-62
Malme-3M = tested on: Malme-3M
Hs-578T = tested on: Hs-578T
TK-10 = tested on: TK-10
MDA-N = tested on: MDA-N
MDA-MB-435 = tested on: MDA-MB-435
SK-OV-3 = tested on: SK-OV-3
K562 = tested on: K562
786-0 = tested on: 786-0
HCC 2998 = tested on: HCC 2998
ACHN = tested on: ACHN
NCI/ADR-RES = tested on: NCI/ADR-RES
SR = tested on: SR
SNB-75 = tested on: SNB-75
HCT-116 = tested on: HCT-116
SK-MEL-2 = tested on: SK-MEL-2
KM12 = tested on: KM12
HOP-62 = tested on: HOP-62
NCI-H226 = tested on: NCI-H226
M14 = tested on: M14
BT-549 = tested on: BT-549
SF-295 = tested on: SF-295
SN12C = tested on: SN12C
RXF 393 = tested on: RXF 393
EKVX = tested on: EKVX
NCI-H522 = tested on: NCI-H522
A549 = tested on: A549
COLO 205 = tested on: COLO 205
LOX IMVI = tested on: LOX IMVI
UO-31 = tested on: UO-31
IGROV-1 = tested on: IGROV-1
HCT-15 = tested on: HCT-15
UACC-257 = tested on: UACC-257
NCI-H460 = tested on: NCI-H460
CCRF-CEM = tested on: CCRF-CEM
CAKI-1 = tested on: CAKI-1
SW-620 = tested on: SW-620
HT-29 = tested on: HT-29
HL-60 = tested on: HL-60
U-251 = tested on: U-251
SK-MEL-5 = tested on: SK-MEL-5
SF-268 = tested on: SF-268
OVCAR-5 = tested on: OVCAR-5
RPMI-8226 = tested on: RPMI-8226
OVCAR-4 = tested on: OVCAR-4
MDA-MB-231 = tested on: MDA-MB-231
SNB-19 = tested on: SNB-19

Structure (SMILES): CC(C)C(=O)C(C)(C)CCc1ccccn1
- GI50 (OVCAR-3): > 100 µM (inactive)
- GI50 (DU-145): > 100 µM (inactive)
- GI50 (OVCAR-8): > 100 µM (inactive)
- GI50 (SK-MEL-28): > 100 µM (inactive)
- GI50 (T47D): > 100 µM (inactive)
- GI50 (MCF7): > 100 µM (inactive)
- GI50 (A498): > 100 µM (inactive)
- GI50 (PC-3): > 100 µM (inactive)
- GI50 (HOP-92): > 100 µM (inactive)
- GI50 (NCI-H23): > 100 µM (inactive)
- GI50 (UACC-62): > 100 µM (inactive)
- GI50 (Malme-3M): > 100 µM (inactive)
- GI50 (Hs-578T): > 100 µM (inactive)
- GI50 (TK-10): > 100 µM (inactive)
- GI50 (MDA-N): > 100 µM (inactive)
- GI50 (MDA-MB-435): > 100 µM (inactive)
- GI50 (SK-OV-3): > 100 µM (inactive)
- GI50 (K562): > 100 µM (inactive)
- GI50 (786-0): > 100 µM (inactive)
- GI50 (HCC 2998): > 100 µM (inactive)
- GI50 (ACHN): > 100 µM (inactive)
- GI50 (NCI/ADR-RES): > 100 µM (inactive)
- GI50 (SR): > 100 µM (inactive)
- GI50 (SNB-75): > 100 µM (inactive)
- GI50 (HCT-116): > 100 µM (inactive)
- GI50 (SK-MEL-2): > 100 µM (inactive)
- GI50 (KM12): > 100 µM (inactive)
- GI50 (HOP-62): > 100 µM (inactive)
- GI50 (NCI-H226): > 100 µM (inactive)
- GI50 (M14): > 100 µM (inactive)
- GI50 (BT-549): > 100 µM (inactive)
- GI50 (SF-295): > 100 µM (inactive)
- GI50 (SN12C): > 100 µM (inactive)
- GI50 (RXF 393): > 100 µM (inactive)
- GI50 (EKVX): > 100 µM (inactive)
- GI50 (NCI-H522): > 100 µM (inactive)
- GI50 (A549): > 100 µM (inactive)
- GI50 (COLO 205): > 100 µM (inactive)
- GI50 (LOX IMVI): > 100 µM (inactive)
- GI50 (UO-31): > 100 µM (inactive)
- GI50 (IGROV-1): > 100 µM (inactive)
- GI50 (HCT-15): > 100 µM
- GI50 (UACC-257): > 100 µM (inactive)
- GI50 (NCI-H460): > 100 µM (inactive)
- GI50 (CCRF-CEM): > 100 µM (inactive)
- GI50 (CAKI-1): > 100 µM (inactive)
- GI50 (SW-620): > 100 µM (inactive)
- GI50 (HT-29): > 100 µM (inactive)
- GI50 (HL-60): > 100 µM (inactive)
- GI50 (U-251): > 100 µM (inactive)
- GI50 (SK-MEL-5): > 100 µM (inactive)
- GI50 (SF-268): > 100 µM (inactive)
- GI50 (OVCAR-5): > 100 µM (inactive)
- GI50 (RPMI-8226): > 100 µM (inactive)
- GI50 (OVCAR-4): > 100 µM (inactive)
- GI50 (MDA-MB-231): > 100 µM (inactive)
- GI50 (SNB-19): > 100 µM (inactive)
